Values joined by “and” are separate entries in the source; they are usually repeats but may differ in a detail not shown here. Identical values can stand only once.
Assays:
[1] = test system: BCL-2, BAX, Cyto-C, Cleaved-caspase 9, Cleaved-caspase 3 in hippocampus of APP/PS1 mice; assay: Western blot and immunofluorescence of apoptosis related factors in hippocampus; type: in vivo; conditions: B14 10, 20, 40 mg/kg i.p. every other day
Description: Protein samples (25–40 μg) were separated using 10 % SDS-PAGE and subsequently transferred onto PVDF membranes (0.22 μm, Servicebio, Guangzhou, China) via electro transfer. Following blocking with TBST solution (Servicebio, Guangzhou, China) containing 5 % BSA (Solarbio, Beijing, China) for approximately 60 min at room temperature, the membrane was exposed to various primary antibodies overnight at 4 °C on a rotating shaker. Then, the membranes were incubated with HRP-conjugated secondary antibody (Affinity, Changzhou, China) for 2 h. Protein bands were then detected using an ECL kit. The signal intensity of each target protein was quantified using Image J 1.8.0 software (Bio-Rad Laboratories, California, USA).
Five months old male APP/PS1 mice, weighing 25–33 g, were purchased from Guangdong Medical Laboratory Animal Center and housed in the Laboratory Animal Center of Sun Yat-sen University (Guangzhou, China) for experimentation. All procedures were approved by the Animal Care and Use Committee of Sun Yat-sen University and complied with legal requirements and national guidelines for the care and maintenance of laboratory animals (Approval No. SYSU-IACUC-2024-002032). The mice were housed in a specific pathogen-free environment with a controlled temperature of 22 ± 1 °C and a 12-h dark/light cycle. […]

APP/PS1 transgenic mice = assay: Histopathological examination (HE) of vital organs; conditions: mouse, in vivo
Description: Five months old male APP/PS1 mice, weighing 25–33 g, were purchased from Guangdong Medical Laboratory Animal Center and housed in the Laboratory Animal Center of Sun Yat-sen University (Guangzhou, China) for experimentation. All procedures were approved by the Animal Care and Use Committee of Sun Yat-sen University and complied with legal requirements and national guidelines for the care and maintenance of laboratory animals (Approval No. SYSU-IACUC-2024-002032). The mice were housed in a specific pathogen-free environment with a controlled temperature of 22 ± 1 °C and a 12-h dark/light cycle. The mice were fed with a standard diet, and 30 mice were randomly divided into 6 groups (N = 5). Compound B14 was dissolved in saline and administered at doses of 10, 20, or 40 mg/kg. APP/PS1 male mice were grown until 6 months of age, and then injected intraperitoneally with compound B14 every other day for 60 days. Behavioral experiments were then conducted, and tissue specimens were collected for biochemical analysis.
The mice were sacrificed, with their brains and organs isolated and embedded in paraffin. The brains and organs were then sectioned into 6 μm thin slices. These slices were subjected to H&E or Nissl staining (Servicebio, Guangzhou, China). The stained sections were subsequently imaged and analyzed by using microscopy.
Figure S11. […]

BCL-2 promoter i-motif = assay: TO displacement assay, BCL-2 i-motif; type: binding; conditions: BPES buffer pH 5.5
Description: Figure S4. TO displacement and UV titration experiments were performed to examine the effects of B14 and A22 on BCL-2 promoter i-motif. (A-B) TO displacement was performed on BCL-2 promoter i-motif annealed in 1XBPES buffer at pH 5.5 with increasing amount of B14 and A22. (C) The above relative TO displacement ratio were statistically analyzed.
DNA oligonucleotides were diluted to 1 μM with 1 × PBES buffer at pH 5.5, annealed at 95 °C for 10 min, cooled to room temperature, and stored at 4 °C for future use. TO dye (1 μM) was added to the DNA solution followed with incubation for 1 h. The spectra of 100 μL mixture with addition of different equivalent compounds at 25 °C were recorded based on fluorescence emission (λex = 480 nm).
TO displacement ratio (%) = (F0 − FC) / (F0 − FB) * 100.
F0 and FC were the fluorescence intensity of TO at 536 nm with DNA before and after adding compounds, respectively. FB was the fluorescence intensity of TO at 536 nm with buffer only.

Aβ1-42 = biological target: T1, Aβ1-42 (Homo sapiens, UniProt P05067); assay: Thioflavine T (ThT) assay of self-induced Aβ1-42 aggregation; type: biochemical
T1 construct: Aβ1-42 was purchased from Gill Biochemicals Ltd (Shanghai, China); purchased Gill Biochemicals Ltd (Shanghai, China)
Description: The experiment was performed following standardized amyloid detection protocols without significant modification. Curcumin (Aladdin, Shanghai, China), a natural inhibitor of Aβ deposition, was used as a positive control with ThT (Aladdin, Shanghai, China) as a fluorescent indicator. 30 μL of freshly formulated Aβ1-42 (30 μM) was incubated without or with A1-16, B1-14, Curcumin at concentration of 40 μM for 24h. Then, it was mixed with 400 μL of freshly formulated ThT (15 μM), which was incubated in the dark for 30 min. Fluorescence signals were recorded using a fluorescence spectrophotometer, and changes in Aβ fibre deposition were determined through the strength of the fluorescence signals. The scanning conditions were set as follows: excitation wavelength at 440 nm, emission wavelength at 480 nm, and slit width of 20 nm.
^a Self-induced Aβ1-42 aggregation (means ± SD of three experiments). The thioflavin-T fluorescence method was used, and the measurements were carried out in the presence of 40 μM test compound. […]
[picture] […] The fluorescence intensity of different concentrations of B14 was measured after incubation with Aβ1-42. Data were statistically analyzed as mean ± SEM. (A) ThT fluorescence intensity. (B) IC50 value for B14 against Aβ1-42 aggregation was determined by using ThT fluorescence intensity.

BCL-2 IM = assay: FRET fluorescence titration of double-labeled DNA; type: binding; conditions: pH 6.2
Description: Figure S3. Biophysical experiments were performed for binding of acridine derivative to BCL-2 promoter i-motif and other DNA structures. (A-C) SPR experiments were performed for binding of B14 to ILPR promoter i-motif, (G2C4)6 promoter i-motif, and HRAS promoter i-motif. Bio-ILPR, bio-(G2C4)6, and bio-HRAS were annealed in MES buffer at pH 5.5. (D) FRET experiment was performed for pH-dependent fluorescence change of BCL-2 promoter i-motif dual labeled with FAM and TAMRA at the 5´-end and 3´-end, respectively. […] (E) Dose-dependent fluorescence spectra changes at 516 nm for various dual labeled C-rich oligomers (representing i-motifs from promoters of BCL-2, C-KIT, C-MYC, C-JUN and TEL-C DNA) were measured with addition of increasing amount of B14. […] All the experiments were repeated for three times.
The oligonucleotides with fluorescent 5´-FAM and 3′-TAMRA labeling at concentration of 100 nM in 1 × BPES buffer were annealed by heating at 95 °C for 5 min followed by cooling to room temperature. The spectra from 500 nm to 700 nm of 100 μL mixture with addition of different equivalent compounds at 25 °C were recorded based on fluorescence emission (λex = 480 nm).

T1 sequence (P05067 672-713 limits assumed): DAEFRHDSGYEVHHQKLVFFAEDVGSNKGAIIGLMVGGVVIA

`O=C(CCN1CCOCC1)Nc1ccc2c(c1)c(=O)c1cc(NC(=O)CCN3CCOCC3)ccc1n2-c1ccc2occc2c1` [Compound B14] was tested, and the “expression level of BCL-2 in hippocampus” value [1] was “effectively increased the expression level of BCL-2”, the “expression levels of pro-apoptotic factors in hippocampus” value [1] was “decreased the expression levels of BAX, Cyto-C, Cleaved-caspase 9 and Cleaved-caspase 3” and the “histopathology of heart, liver, spleen, lungs, kidney” value (APP/PS1 transgenic mice) was “no significant detrimental effect for these organs”. The “Relative TO displacement ratio” value (BCL-2 promoter i-motif) was 65% and 65.7%, the inhibition at 40 µM (Aβ1-42; 40 μM compound, ThT fluorescence, read-out: inhibition of Aβ self-aggregation) was 78.4% and the IC50 (Aβ1-42; ThT fluorescence intensity, read-out: IC50 against Aβ1-42 aggregation) was 24 µM. The “fluorescence response of double-labeled DNA” value (BCL-2 IM) was “dose-dependent effect on the fluorescence of BCL-2 IM”.
